Like-named read-outs stand apart in the source and are kept apart here.
Assays:
Format in all cases: cell-based
[1] = test system: Micrococcus luteus B-109; test: Agar-well diffusion, bactericidal activity; conditions: Micrococcus luteus
Description: (§1) Plant pathogenic bacterial strains Micrococcus luteus B-109, Pectobacterium atrosepticum 1043, Pectobacterium carotovorum subsp. carotovorum MI, Pseudomonas fluorescens EL-2.1, and Xanthomonas campestris B-610 and the fungal strain Fusarium oxysporum IBPPM 543 were from the Collection of Rhizosphere Microorganisms, IBPPM RAS (WFCC no. 975, WDCM no. 1021) (CM IBPPM, http://collection.ibppm.ru). The pathogenic fungus Phytophthora cactorum VKM F-985, provided by the All-Russian Collection of Microorganisms (VKM) and deposited at the A.E. Favorsky Irkutsk Institute of Chemistry, SB RAS, was also used as a test organism. Bacteria M. luteus, P. carotovorum subsp. carotovorum, P. atrosepticum, and P. fluorescens were grown in a meat–peptone medium (BP), and X. campestris was grown in the medium with glucose, yeast extract, and calcium carbonate (GYCa). Solid media contained Bacto agar (18 g/L); pH was adjusted to 7.2–7.4. All bacterial cultures were grown at 28 °C. The mycelial cultures of F. oxysporum and P. cactorum were grown on a glucose–peptone–yeast (GPY) nutrient medium at 27 °C. For inoculum preparation, both fungal strains were initially grown on the agar GPY in Petri dishes and then transferred into the seed medium by punching out 5 mm of the agar plate culture with a self-designed cutter.
(§2) The antibacterial and antifungal activities of the compounds were explored using the agar-well diffusion method and the technique of mycelial radial growth inhibition. The method of diffusion in agar (measuring the diameter of growth inhibition zones) was used to determine the bactericidal activity. The 6-mm wells were made in agar medium (GYCa for Xanthomonas campestris or BP for other bacteria). Bacterial suspensions were distributed over the agar surface, and the tested compound’s solution (150 μL) was added to each well. The width of growth inhibition zones around the wells was determined after incubation for 36–40 h.

[2] = test system: Pectobacterium atrosepticum 1043; test: Agar-well diffusion, bactericidal activity; conditions: Pectobacterium atrosepticum, 1043, 2 mM/L
Description: as §1, §2

[3] = test system: Pectobacterium carotovorum subsp. carotovorum MI; test: Agar-well diffusion, bactericidal activity; conditions: Pectobacterium carotovorum, 2 mM/L
Description: as §1, §2

[4] = test system: Pseudomonas fluorescens EL-2.1; test: Agar-well diffusion, bactericidal activity; conditions: Pseudomonas fluorescens, EL2.1, 2 mM/L
Description: as §1, §2

[5] = test system: Xanthomonas campestris B-610; test: Agar-well diffusion, bactericidal activity; conditions: Xanthomonas campestris
Protocol: Bacteria M. luteus, P. carotovorum subsp. carotovorum, P. atrosepticum, and P. fluorescens were grown in a meat–peptone medium (BP), and X. campestris was grown in the medium with glucose, yeast extract, and calcium carbonate (GYCa). Solid media contained Bacto agar (18 g/L); pH was adjusted to 7.2–7.4. […] For inoculum preparation, both fungal strains were initially grown on the agar GPY in Petri dishes and then transferred into the seed medium by punching out 5 mm of the agar plate culture with a self-designed cutter.
as §2

[6] = test system: five representative phytopathogens; test: Agar-well diffusion, bactericidal activity over the panel of phytopathogens
Description: as §1, §2

[7] = test system: Fusarium oxysporum IBPPM 543; test: Mycelial radial growth inhibition; conditions: Fusarium oxysporum; for inhibition of growth at 1 µM: 1 nmol/mL; for inhibition of growth at 1 µM / inhibition of growth at 5 µM / inhibition of growth at 30 µM / inhibition of growth at 40 µM: read-out: Inhibition value, I (%); for inhibition of growth at 5 µM: 5 nmol/mL; for inhibition of growth at 30 µM: 30 nmol/mL; for inhibition of growth at 40 µM: 40 nmol/mL
Description: as §1
(§3) For the fungicidal activity analysis, radial growth (colony diameters) of the fungi on a solid medium in the absence and in the presence of the compounds 5a–e and 7a–c solutions at various concentrations were compared. The method consisted of the following: A sterile GPY agar medium (20.0 mL), which was melted and then allowed to cool to approximately 60 °C, was mixed with the precisely measured volumes of the solutions under question and poured into a sterile Petri dish (90 mm i.d.). After the solidification of GPY agar, the media were inoculated by the fungus using 10-day-old cultures of F. oxysporum or P. cactorum. The inoculation was conducted by transferring a 5-mm (i.d.) GPY-agar block covered with mycelium to the center of the Petri dish, followed by incubation in a thermostat at 27 °C. The fungicidal effect was scored by the size of the mycelium colony on a Petri dish compared to the control without fungicidal admixtures to GPY agar. Each treatment was performed in at least four replicates in two independent experiments. The observation period ended when the control Petri dish was filled with mycelium (usually after 12 days). […] The solutions of the compounds were prepared with a concentration of 2 mmol/L (stock solution). For comparison, test compounds were also commonly applied as disinfecting agents, and antibiotics were used as a positive control.

[8] = test system: Phytophthora cactorum VKM F-985; test: Mycelial radial growth inhibition; conditions: Phytophthora cactorum; for inhibition of growth at 3 µM: 3 nmol/mL; for inhibition of growth at 3 µM / inhibition of growth at 7 µM / inhibition of growth at 20 µM / inhibition of growth / inhibition of growth at 40 µM: read-out: Inhibition value, I (%); for inhibition of growth at 7 µM: 7 nmol/mL; for inhibition of growth at 20 µM: 20 nmol/mL; for inhibition of growth: 27 nmol/mL; for inhibition of growth at 40 µM: 40 nmol/mL
Description: as §1, §3

[9] = Table S3, read-out: Inhibition zone width (mm), not less
[10] = IBPPM543, 72 h, age of the fungus 3 days
[11] = IBPPM543, 120 h, age of the fungus 5 days
[12] = IBPPM543, 168 h, age of the fungus 7 days
[13] = IBPPM543, 216 h, age of the fungus 9 days
[14] = 120 h, age of the fungus 5 days
[15] = 168 h, age of the fungus 7 days
[16] = 216 h, age of the fungus 9 days

Cc1ccc[n+](CC(=O)N/N=C2\C(=O)N(Cc3ccccc3F)c3ccccc32)c1C [Compound 7a]
zone of inhibition at 2000 µM ([1]; B109, 2 mM/L, average of 3 experiments, read-out: width of the inhibition zone (mm), M. luteus): 2 mm
zone of inhibition at 2000 µM ([1]; B109, Table S3, 2 mM/L, read-out: Inhibition zone width (mm), not less): ≥ 2 mm
zone of inhibition at 2000 µM ([2]; average of 3 experiments, read-out: width of the inhibition zone (mm), P. atrosepticum): 3 mm
zone of inhibition at 2000 µM [2, 9]: ≥ 3 mm
zone of inhibition at 2000 µM ([3]; average of 3 experiments, read-out: width of the inhibition zone (mm), P. carotovorum subsp. carotovorum): 6 mm
zone of inhibition at 2000 µM [3, 9]: ≥ 6 mm
zone of inhibition at 2000 µM ([4]; average of 3 experiments, read-out: width of the inhibition zone (mm), Ps. fluorescens): 5 mm
zone of inhibition at 2000 µM [4, 9]: ≥ 5 mm
zone of inhibition at 2000 µM ([5]; B610, 2 mM/L, average of 3 experiments, read-out: width of the inhibition zone (mm), X. campestris): 5 mm
zone of inhibition at 2000 µM ([5]; B610, Table S3, 2 mM/L, read-out: Inhibition zone width (mm), not less): ≥ 5 mm
zone of inhibition at 2000 µM ([6]; 36 h, 2 mM solutions, dependent on the test system used, read-out: inhibition zone width (mm), range over the test systems): 2 to 6 mm
bactericidal activity ([6]; Table S2): moderate bactericidal activity
inhibition zone ([6]; against P. carotovorum subsp. carotovorum MI, Ps. fluorescens EL-2.1 and X. campestris B-610): 5–6 mm
inhibition of growth at 1 µM [7, 10]: 9%
inhibition of growth at 5 µM [7, 10]: 43%
inhibition of growth at 30 µM [7, 10]: 51%
inhibition of growth at 40 µM [7, 10]: 61%
EC50 ([7]; IBPPM543, 120 h, day 5, read-out: EC50, µg/mL at Day 5, F. oxysporum): 7.25 µg/mL
inhibition of growth at 1 µM [7, 11]: 4%
inhibition of growth at 5 µM [7, 11]: 44%
inhibition of growth at 30 µM [7, 11]: 59%
inhibition of growth at 40 µM [7, 11]: 65%
inhibition of growth at 1 µM [7, 12]: 8%
inhibition of growth at 5 µM [7, 12]: 41%
inhibition of growth at 30 µM [7, 12]: 56%
inhibition of growth at 40 µM [7, 12]: 69%
inhibition of growth at 1 µM [7, 13]: 0%
inhibition of growth at 5 µM [7, 13]: 33%
inhibition of growth at 30 µM [7, 13]: 55%
inhibition of growth at 40 µM [7, 13]: 64%
inhibition of growth at 3 µM ([8]; 72 h, age of the fungus 3 days): 5%
inhibition of growth at 7 µM ([8]; 72 h, age of the fungus 3 days): 17%
inhibition of growth at 20 µM ([8]; 72 h, age of the fungus 3 days): 21%
inhibition of growth ([8]; 72 h, age of the fungus 3 days): 27%
inhibition of growth at 40 µM ([8]; 72 h, age of the fungus 3 days): 42%
EC50 ([8]; 120 h, day 5, read-out: EC50, µg/mL at Day 5, P. cactorum): 22.9 µg/mL
inhibition of growth at 3 µM [8, 14]: 12%
inhibition of growth at 7 µM [8, 14]: 21%
inhibition of growth at 20 µM [8, 14]: 25%
inhibition of growth [8, 14]: 29%
inhibition of growth at 40 µM [8, 14]: 45%
inhibition of growth at 3 µM [8, 15]: 4%
inhibition of growth at 7 µM [8, 15]: 10%
inhibition of growth at 20 µM [8, 15]: 16%
inhibition of growth [8, 15]: 20%
inhibition of growth at 40 µM [8, 15]: 38%
inhibition of growth at 3 µM [8, 16]: 4%
inhibition of growth at 7 µM [8, 16]: 6%
inhibition of growth at 20 µM [8, 16]: 13%
inhibition of growth [8, 16]: 16%
inhibition of growth at 40 µM [8, 16]: 37%

Source: article PMC10607100, “Anticancer and Antiphytopathogenic Activity of Fluorinated Isatins and Their Water-Soluble Hydrazone Derivatives” (International Journal of Molecular Sciences, 2023)
